Source: ChEMBL document CHEMBL5512664, “Emerging and Re-emerging Warheads for Targeted Covalent Inhibitors: An Update” (J Med Chem, 2024)

Legend:
[1] = target: Pyruvate kinase PKLR (Homo sapiens, UniProt P30613); assay: Allosteric activation at human liver pyruvate kinase
[2] = Inhibition of staphylococcus aureus Sortase A assessed as fluorescence polarization using reporter peptide W7-F incubated for 30 mins by competition assay
[3] = target: Induced myeloid leukemia cell differentiation protein Mcl-1 (Homo sapiens, UniProt Q07820); assay: Irreversible inhibition of MCL-1 (unknown origin) measured after 8 hrs
Sequence of Induced myeloid leukemia cell differentiation protein Mcl-1 (Q07820 whole entry): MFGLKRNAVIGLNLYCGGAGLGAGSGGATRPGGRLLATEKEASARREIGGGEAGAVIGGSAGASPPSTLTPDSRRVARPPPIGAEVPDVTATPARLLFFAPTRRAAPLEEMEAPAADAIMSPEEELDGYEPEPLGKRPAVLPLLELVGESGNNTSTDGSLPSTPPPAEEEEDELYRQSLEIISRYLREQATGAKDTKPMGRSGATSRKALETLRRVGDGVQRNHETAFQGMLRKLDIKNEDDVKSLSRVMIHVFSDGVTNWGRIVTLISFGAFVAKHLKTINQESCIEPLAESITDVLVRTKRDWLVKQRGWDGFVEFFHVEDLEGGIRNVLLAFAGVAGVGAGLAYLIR

[4] = Stability of the compound in human plasma assessed as half life; format: ADME, cell-free
[5] = target: Replicase polyprotein 1ab (Severe acute respiratory syndrome coronavirus 2, UniProt P0DTD1); assay: Inhibition of SARS-CoV-2 Main protease (Mpro) by FRET assay
[6] = Metabolic stability in human liver microsomes assessed as half life; format: ADME, Microsome
[7] = Metabolic stability in human hepatocytes assessed as half life; format: ADME, cell-based, Hepatocyte
[8] = target: Signal peptidase I (Escherichia coli K-12, UniProt P00803); assay: Binding affinity to Escherichia coli type I signal peptidase LepB assessed as inhibition constant
Sequence of Signal peptidase I (P00803 whole entry): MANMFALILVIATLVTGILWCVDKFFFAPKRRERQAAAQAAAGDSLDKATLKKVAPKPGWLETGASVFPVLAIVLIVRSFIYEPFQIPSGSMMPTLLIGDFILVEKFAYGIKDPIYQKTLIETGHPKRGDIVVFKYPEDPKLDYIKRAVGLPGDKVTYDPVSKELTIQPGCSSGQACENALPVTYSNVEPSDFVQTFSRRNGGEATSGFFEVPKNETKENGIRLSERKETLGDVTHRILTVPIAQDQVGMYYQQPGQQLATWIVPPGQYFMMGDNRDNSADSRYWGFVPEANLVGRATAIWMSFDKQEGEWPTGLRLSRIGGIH

[9] = target: Signal peptidase I (Escherichia coli K-12) (UniProt P00803); assay: Irreversible inhibition of Escherichia coli type I signal peptidase LepB assessed as inactivation rate constant (Kinact)
Sequence of Signal peptidase I (Escherichia coli K-12) (P00803 whole entry): as above

[10] = target: Signal peptidase I (Escherichia coli K-12) (UniProt P00803); assay: Inhibition of Escherichia coli type I signal peptidase LepB assessed as reaction rate Kinact/Ki ratio
[11] = target: T1, Peptidyl-prolyl cis-trans isomerase E (Homo sapiens, UniProt Q9UNP9); assay: Inhibition of CypE (unknown origin) expressed in Escherichia coli BL21(DE3) by FLIPR based Chymotrypsin coupled prolyl-isomerase assay
T1 sequence (Q9UNP9 whole entry): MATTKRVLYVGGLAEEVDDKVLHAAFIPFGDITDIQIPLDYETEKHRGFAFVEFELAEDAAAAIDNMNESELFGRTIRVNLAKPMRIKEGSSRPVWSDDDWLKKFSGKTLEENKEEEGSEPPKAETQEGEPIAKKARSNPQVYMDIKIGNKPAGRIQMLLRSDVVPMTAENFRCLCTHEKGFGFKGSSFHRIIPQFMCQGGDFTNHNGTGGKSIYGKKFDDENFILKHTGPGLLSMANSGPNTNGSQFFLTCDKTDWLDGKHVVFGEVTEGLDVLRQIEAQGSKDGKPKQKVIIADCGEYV

[12] = target: T1, Peptidyl-prolyl cis-trans isomerase E; assay: Inhibition of CypE (unknown origin) assessed as apparent inhibition constant incubated for 24 hrs by Competition anisotropy binding assay; conditions: read-out: Ki(app)
[13] = Stability of the compound in pH 7.5 PBS assessed as hydrolysis by measuring half life at 500 uM by LC-MS analysis; format: physicochemical; conditions: PBS pH 7.5, pH 7.5
[14] = GSH reactivity in PBS buffer at pH 7.5 assessed as half life at 500 uM by LC-MS analysis; format: ADME
[15] = target: Eukaryotic translation initiation factor 4E (Homo sapiens) (UniProt P06730); assay: Inhibition of eIF4E (unknown origin) assessed as inactivation rate constant (Kinact)
Sequence of Eukaryotic translation initiation factor 4E (Homo sapiens) (P06730 whole entry): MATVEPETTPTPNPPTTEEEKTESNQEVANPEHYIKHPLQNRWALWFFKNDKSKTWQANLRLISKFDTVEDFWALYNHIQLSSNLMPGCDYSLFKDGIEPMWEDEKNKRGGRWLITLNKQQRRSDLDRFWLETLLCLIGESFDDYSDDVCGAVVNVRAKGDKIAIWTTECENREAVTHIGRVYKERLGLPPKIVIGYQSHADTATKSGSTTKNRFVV

[16] = target: Eukaryotic translation initiation factor 4E (Homo sapiens) (UniProt P06730); assay: Inhibition of eIF4E (unknown origin) assessed as reaction rate Kinact/Ki ratio

Sequence of Pyruvate kinase PKLR (P30613 whole entry): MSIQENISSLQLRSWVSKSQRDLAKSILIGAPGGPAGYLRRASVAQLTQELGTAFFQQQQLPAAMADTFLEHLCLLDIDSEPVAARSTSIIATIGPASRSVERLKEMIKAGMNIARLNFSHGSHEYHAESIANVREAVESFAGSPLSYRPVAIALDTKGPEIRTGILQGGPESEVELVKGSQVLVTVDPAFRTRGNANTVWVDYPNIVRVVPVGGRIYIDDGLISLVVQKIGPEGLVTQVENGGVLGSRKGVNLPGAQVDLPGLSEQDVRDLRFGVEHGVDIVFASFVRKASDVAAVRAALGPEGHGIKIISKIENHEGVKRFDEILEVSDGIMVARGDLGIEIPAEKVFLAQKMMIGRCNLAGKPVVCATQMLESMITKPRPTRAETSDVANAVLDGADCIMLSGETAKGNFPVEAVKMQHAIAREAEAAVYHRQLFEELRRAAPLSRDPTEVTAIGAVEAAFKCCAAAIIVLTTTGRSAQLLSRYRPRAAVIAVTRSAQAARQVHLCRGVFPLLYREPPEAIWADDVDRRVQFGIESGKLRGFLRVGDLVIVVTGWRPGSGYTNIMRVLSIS

## COC(=O)c1ccccc1SC1=NS(=O)(=O)c2ccccc21
[1]
  EC50: 290 nM

## O=Cc1ccccc1NCc1ccccc1B(O)O
[2]
  IC50: 1300 nM

## C#Cc1ccc(OCc2nn(C)c(C)c2-c2cccc3c(CCCOc4cccc5ccccc45)c(C(=O)O)[nH]c23)cc1C=O
[3]
  IC50: 26.8 nM

## O=C1CCC(N2Cc3ccc(S(=O)(=O)n4cncn4)cc3C2=O)C(=O)N1 (stereo unspecified)
[4]
  half-life: < 1 min

## O=C[C@H](CC1CCNC1=O)NC(=O)[C@H](Cc1cccc(F)c1)NC(=O)c1cc2ccccc2[nH]1 (stereo partly specified)
[5]
  IC50: 40 nM

## O=C1CCC(N2Cc3ccc(OS(=O)(=O)F)cc3C2=O)C(=O)N1 (stereo unspecified)
[6]
  half-life: > 145 min
[7]
  half-life: > 217 min

## Cc1nc(-c2ccc(C(C)(C)C)cc2)ncc1C(=O)N[C@@H](CCN)C(=O)N(C)[C@@H]1C(=O)N[C@@H](C)C(=O)N[C@H](C(=O)NCC#N)Cc2ccc(OCCN)c(c2)-c2cc1ccc2OCCN
[8]
  Ki: 0.44 nM
[9]
  Kinact: 7 10^-4/s
[10]
  Ratio: 1.6 10^6/M/s

## NCCOCCNC(=O)[C@@H]1CCNC(=O)/C=C/C(=O)N2CCC[C@](Cc3ccccc3)(C2)C(=O)N[C@@H](Cc2ccc(-c3ccccc3)cc2)C(=O)NCc2ccccc2CC(=O)N1
[11]
  IC50: 13 nM
[12]
  Ki: 72 nM

## CNc1nc2ccc(N(Cc3ccnc(Cl)c3)S(=O)(=O)c3cccc(S(=O)(=O)F)c3)cc2c(=O)[nH]1
[13]
  half-life at 500 µM: 30 min
[14]
  half-life at 500 µM: 2.7 min
[15]
  Kinact: 2 10^-2/s
[16]
  Ratio: 5.5 10^3/M/s
